Data published in publication PMC11661359, “Structure guided functional analysis of the S. cerevisiae Mre11 complex” (Research Square, 2024).

T1: S. cerevisiae Mre11-Rad50 (MR) complex (Saccharomyces cerevisiae, UniProt P12753, E1235Q, form not given)
T1 construct: full-length Rad50 and Mre11 (C-terminal 1xFLAG on Mre11 given for MR-EQ), purified from yeast; 2:2 complex, no Xrs2; with Double-strand break repair protein MRE11
T1 sequence (P12753 1-1312 E1235Q): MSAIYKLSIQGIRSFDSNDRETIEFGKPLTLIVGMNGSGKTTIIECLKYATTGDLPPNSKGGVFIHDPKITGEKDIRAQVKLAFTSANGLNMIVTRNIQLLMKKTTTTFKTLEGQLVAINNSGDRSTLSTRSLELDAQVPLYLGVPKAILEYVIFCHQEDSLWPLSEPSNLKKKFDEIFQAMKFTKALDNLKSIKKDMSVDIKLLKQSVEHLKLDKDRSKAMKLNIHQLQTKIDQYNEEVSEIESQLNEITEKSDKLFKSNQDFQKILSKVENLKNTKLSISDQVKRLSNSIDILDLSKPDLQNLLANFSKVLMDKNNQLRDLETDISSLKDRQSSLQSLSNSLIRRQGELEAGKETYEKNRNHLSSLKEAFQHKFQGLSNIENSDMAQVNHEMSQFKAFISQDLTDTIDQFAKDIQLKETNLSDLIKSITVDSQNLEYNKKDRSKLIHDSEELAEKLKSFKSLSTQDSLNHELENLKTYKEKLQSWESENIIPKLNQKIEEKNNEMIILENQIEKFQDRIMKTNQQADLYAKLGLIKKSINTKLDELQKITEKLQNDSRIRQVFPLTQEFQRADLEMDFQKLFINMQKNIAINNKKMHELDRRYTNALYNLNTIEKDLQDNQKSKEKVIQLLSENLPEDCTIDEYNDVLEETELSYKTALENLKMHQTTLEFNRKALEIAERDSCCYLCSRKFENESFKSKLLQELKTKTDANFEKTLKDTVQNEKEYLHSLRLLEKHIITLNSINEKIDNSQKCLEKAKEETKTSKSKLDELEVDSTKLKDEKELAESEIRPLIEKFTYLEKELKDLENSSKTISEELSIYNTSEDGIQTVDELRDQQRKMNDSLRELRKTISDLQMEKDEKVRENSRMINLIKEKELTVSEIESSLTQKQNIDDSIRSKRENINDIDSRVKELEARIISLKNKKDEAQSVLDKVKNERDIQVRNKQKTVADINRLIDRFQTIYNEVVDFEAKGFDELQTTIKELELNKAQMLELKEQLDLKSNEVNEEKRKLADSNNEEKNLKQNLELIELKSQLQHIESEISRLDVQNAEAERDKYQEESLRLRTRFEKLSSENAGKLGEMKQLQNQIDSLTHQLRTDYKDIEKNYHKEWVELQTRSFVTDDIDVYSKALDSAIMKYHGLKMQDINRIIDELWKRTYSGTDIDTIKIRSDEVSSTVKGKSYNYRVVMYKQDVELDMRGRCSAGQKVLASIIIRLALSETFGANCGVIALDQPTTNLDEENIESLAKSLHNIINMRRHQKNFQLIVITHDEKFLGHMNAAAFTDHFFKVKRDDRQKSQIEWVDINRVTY
T1 sequence (P32829 1-692 partner): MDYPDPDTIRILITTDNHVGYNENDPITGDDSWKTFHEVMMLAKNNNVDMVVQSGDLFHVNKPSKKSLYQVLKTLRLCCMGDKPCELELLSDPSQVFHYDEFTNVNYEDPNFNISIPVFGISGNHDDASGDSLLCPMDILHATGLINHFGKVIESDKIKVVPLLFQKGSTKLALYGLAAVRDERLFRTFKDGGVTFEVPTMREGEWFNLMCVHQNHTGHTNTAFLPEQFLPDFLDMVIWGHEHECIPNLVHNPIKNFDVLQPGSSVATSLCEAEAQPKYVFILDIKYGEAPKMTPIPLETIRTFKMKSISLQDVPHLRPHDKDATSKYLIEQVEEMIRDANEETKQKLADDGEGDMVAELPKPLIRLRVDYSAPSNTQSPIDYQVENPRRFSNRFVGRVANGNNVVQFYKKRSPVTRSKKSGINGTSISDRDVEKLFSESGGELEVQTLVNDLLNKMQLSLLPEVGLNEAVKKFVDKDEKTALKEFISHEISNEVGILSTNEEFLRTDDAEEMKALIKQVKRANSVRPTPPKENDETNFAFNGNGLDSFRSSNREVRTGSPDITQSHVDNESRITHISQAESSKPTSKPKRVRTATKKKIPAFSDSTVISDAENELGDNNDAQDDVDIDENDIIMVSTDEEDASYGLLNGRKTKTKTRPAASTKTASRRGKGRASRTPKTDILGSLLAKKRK

T2: S. cerevisiae Mre11-Rad50 (MR) complex (Saccharomyces cerevisiae, UniProt P12753, K192A/K195A/K196A, form not given)
T2 construct: full-length Rad50 and Mre11 (C-terminal 1xFLAG on Mre11 given for MR-EQ), purified from yeast; 2:2 complex, no Xrs2; with Double-strand break repair protein MRE11
T2 sequence (P12753 1-1312 K192A/K195A/K196A): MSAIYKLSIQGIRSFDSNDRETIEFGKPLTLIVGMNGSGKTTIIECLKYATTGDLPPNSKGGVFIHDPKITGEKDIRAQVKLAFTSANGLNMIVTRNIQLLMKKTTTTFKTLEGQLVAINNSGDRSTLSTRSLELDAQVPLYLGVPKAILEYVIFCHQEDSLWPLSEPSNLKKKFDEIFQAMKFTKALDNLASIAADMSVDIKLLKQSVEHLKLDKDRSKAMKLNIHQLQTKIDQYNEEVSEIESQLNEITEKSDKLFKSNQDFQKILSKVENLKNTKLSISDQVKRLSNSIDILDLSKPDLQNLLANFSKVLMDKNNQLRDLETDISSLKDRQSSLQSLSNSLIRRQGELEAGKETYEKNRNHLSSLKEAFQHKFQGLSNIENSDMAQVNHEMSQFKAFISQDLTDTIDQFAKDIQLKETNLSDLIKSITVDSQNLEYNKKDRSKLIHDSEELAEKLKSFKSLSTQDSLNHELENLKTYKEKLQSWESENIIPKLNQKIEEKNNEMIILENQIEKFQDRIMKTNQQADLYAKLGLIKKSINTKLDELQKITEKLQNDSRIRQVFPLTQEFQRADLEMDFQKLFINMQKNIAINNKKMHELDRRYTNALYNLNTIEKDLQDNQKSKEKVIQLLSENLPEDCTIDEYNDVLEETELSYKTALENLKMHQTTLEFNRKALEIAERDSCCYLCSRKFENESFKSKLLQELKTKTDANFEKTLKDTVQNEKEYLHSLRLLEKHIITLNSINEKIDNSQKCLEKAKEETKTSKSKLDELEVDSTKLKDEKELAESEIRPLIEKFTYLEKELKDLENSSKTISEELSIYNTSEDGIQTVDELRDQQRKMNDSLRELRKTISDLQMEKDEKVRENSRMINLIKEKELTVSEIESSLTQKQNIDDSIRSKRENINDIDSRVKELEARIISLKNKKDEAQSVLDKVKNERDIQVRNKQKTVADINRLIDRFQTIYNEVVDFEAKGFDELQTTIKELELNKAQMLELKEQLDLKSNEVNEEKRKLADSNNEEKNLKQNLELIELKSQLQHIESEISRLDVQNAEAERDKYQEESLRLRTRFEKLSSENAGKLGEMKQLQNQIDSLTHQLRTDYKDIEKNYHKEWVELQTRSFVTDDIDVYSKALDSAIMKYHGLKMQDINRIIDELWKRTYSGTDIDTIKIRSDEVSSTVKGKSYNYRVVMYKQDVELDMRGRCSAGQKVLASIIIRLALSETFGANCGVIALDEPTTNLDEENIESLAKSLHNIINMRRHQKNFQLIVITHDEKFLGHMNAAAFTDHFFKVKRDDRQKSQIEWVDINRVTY
T2 sequence (P32829 1-692 partner): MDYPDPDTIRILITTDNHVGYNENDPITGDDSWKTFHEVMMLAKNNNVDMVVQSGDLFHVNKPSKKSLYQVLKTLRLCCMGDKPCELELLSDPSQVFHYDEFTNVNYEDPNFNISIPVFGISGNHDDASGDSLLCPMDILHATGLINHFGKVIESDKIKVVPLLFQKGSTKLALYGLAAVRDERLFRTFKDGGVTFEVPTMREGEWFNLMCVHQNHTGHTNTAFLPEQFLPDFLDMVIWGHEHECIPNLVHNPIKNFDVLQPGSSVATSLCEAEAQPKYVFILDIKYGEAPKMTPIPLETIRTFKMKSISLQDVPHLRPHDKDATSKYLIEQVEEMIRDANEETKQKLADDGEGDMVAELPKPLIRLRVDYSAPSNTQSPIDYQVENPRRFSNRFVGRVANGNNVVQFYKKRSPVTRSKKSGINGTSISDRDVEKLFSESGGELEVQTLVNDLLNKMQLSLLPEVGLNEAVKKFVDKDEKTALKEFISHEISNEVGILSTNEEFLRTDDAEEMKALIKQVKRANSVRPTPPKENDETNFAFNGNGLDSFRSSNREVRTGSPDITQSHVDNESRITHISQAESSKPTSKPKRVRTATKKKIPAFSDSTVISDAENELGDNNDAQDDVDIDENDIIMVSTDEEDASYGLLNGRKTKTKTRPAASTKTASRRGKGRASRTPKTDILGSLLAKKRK

T3: S. cerevisiae Rad50-E1235Q (R^EQ of the purified MR^EQ complex) (S. cerevisiae, UniProt P12753 1-1312, E1235 residue of Rad50 was mutated to Q)
T3 construct: Rad50, S. cerevisiae; residues 239-1089 (coiled coil arm and Zn hook) are said to be flexible and not traced; also called Rad50-EQ; source: S. cerevisiae, purified from yeast extracts together with Mre11-FLAG (FLAG-Agarose, Heparin-Sepharose, gel filtration)
T3 sequence: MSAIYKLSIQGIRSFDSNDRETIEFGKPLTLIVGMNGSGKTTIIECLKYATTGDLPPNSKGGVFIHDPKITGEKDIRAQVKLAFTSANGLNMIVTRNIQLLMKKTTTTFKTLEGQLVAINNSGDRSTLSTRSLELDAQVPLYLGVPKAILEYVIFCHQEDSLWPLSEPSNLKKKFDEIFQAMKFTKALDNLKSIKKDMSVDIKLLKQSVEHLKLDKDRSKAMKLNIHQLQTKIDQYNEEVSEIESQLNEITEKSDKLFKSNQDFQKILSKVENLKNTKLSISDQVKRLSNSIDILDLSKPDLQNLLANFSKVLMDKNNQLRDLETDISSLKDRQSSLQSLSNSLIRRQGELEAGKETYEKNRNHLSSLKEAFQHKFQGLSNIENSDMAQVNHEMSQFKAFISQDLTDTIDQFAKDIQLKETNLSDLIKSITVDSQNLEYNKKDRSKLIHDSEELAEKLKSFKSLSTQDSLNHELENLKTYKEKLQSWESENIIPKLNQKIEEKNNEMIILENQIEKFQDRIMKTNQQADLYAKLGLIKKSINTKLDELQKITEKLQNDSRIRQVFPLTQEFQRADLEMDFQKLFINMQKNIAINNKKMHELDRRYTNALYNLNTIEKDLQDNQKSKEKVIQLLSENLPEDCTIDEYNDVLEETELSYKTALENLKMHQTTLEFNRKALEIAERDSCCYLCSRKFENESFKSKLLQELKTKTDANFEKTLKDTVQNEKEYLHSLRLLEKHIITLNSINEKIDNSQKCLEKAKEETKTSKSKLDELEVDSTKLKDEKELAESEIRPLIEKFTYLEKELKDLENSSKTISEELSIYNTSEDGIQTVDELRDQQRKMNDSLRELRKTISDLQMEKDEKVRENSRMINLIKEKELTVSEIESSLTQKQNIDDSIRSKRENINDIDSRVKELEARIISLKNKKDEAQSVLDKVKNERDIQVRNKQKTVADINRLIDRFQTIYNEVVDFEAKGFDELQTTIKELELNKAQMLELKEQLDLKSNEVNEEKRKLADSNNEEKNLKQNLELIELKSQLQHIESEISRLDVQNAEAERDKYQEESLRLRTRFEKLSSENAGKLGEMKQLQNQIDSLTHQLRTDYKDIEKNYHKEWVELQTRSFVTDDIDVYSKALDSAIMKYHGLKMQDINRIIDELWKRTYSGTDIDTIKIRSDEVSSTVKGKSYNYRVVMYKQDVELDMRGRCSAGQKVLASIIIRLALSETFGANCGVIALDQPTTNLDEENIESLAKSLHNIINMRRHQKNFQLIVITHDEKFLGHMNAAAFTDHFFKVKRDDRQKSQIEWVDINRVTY


Legend:
[1] = biological target: T1, S. cerevisiae Mre11-Rad50 (MR) complex; test: cryo-EM structure, […] Å; format: binding; conditions: with 83-mer dsDNA, MgCl2 and MnCl2; ATP bound at Walker A/B interface of Rad50 dimer; hydrolysis-deficient mutant
[2] = biological target: T2, S. cerevisiae Mre11-Rad50 (MR) complex; test: ATP hydrolysis, radiolabelled phosphate by thin-layer chromatography; format: biochemical; conditions: 0-2 uM MR, ss and dsDNA, MgCl2, 90 min; labelled compound
[3] = biological target: T3, S. cerevisiae Rad50-E1235Q (R^EQ of the …); test: cryo-EM structure; purified MR^EQ incubated with a 83-mer dsDNA in the presence of ATP, MgCl2 and MnCl2; 3.2 Å; conditions: both partners purified

Molecule	cryo-EM structure, 3.2 Å [1]	ATP hydrolysis, radiolabelled phosphate by thin-layer chromatography [2]	binding result [3]
Nc1ncnc2c1ncn2[C@@H]1O[C@H](COP(=O)(O)OP(=O)(O)OP(=O)(O)O)[C@@H](O)[C@H]1O [ATP]	MR^EQ was incubated with a 83-mer double stranded DNA (dsDNA) in the presence of ATP	Rad50–3KA, Rad50-K60A R1201A and Rad50-R131A R1201A were as defective as the Rad50-EQ mutant	
S. cerevisiae Mre11 with a C-terminal 1xFLAG tag (Mre11 of the purified MR^EQ complex) (enzyme, Mre11, S. cerevisiae; residues 413-441 and 508-692 are said to be flexible and not traced; Two symmetry-related Mre11 subunits stand in the structure; also called M of MR^EQ; source: S. cerevisiae, purified from yeast extracts together with Rad50-E1235Q (FLAG-Agarose, Heparin-Sepharose, gel filtration); not shown: 1xFLAG, C-terminal, kept) MDYPDPDTIRILITTDNHVGYNENDPITGDDSWKTFHEVMMLAKNNNVDMVVQSGDLFHVNKPSKKSLYQVLKTLRLCCMGDKPCELELLSDPSQVFHYDEFTNVNYEDPNFNISIPVFGISGNHDDASGDSLLCPMDILHATGLINHFGKVIESDKIKVVPLLFQKGSTKLALYGLAAVRDERLFRTFKDGGVTFEVPTMREGEWFNLMCVHQNHTGHTNTAFLPEQFLPDFLDMVIWGHEHECIPNLVHNPIKNFDVLQPGSSVATSLCEAEAQPKYVFILDIKYGEAPKMTPIPLETIRTFKMKSISLQDVPHLRPHDKDATSKYLIEQVEEMIRDANEETKQKLADDGEGDMVAELPKPLIRLRVDYSAPSNTQSPIDYQVENPRRFSNRFVGRVANGNNVVQFYKKRSPVTRSKKSGINGTSISDRDVEKLFSESGGELEVQTLVNDLLNKMQLSLLPEVGLNEAVKKFVDKDEKTALKEFISHEISNEVGILSTNEEFLRTDDAEEMKALIKQVKRANSVRPTPPKENDETNFAFNGNGLDSFRSSNREVRTGSPDITQSHVDNESRITHISQAESSKPTSKPKRVRTATKKKIPAFSDSTVISDAENELGDNNDAQDDVDIDENDIIMVSTDEEDASYGLLNGRKTKTKTRPAASTKTASRRGKGRASRTPKTDILGSLLAKKRK			binds
